US9505762B2, “Purine derivatives as CB2 receptor agonists” (Hoffmann-La Roche Inc., priority 2013, dated 2016)

Key:
human CB2 receptors = human CB2 receptors (Homo sapiens (Human), UniProt P34972); assay: functional cAMP assay, CB2; type: cell-based; settings: CHO cells expressing human CB2
human CB1 receptors = human CB1 receptors (Homo sapiens (Human), UniProt P21554); assay: functional cAMP assay, CB1; type: cell-based; settings: CHO cells expressing human CB1
human CB1 receptors, sequence (P21554 whole entry): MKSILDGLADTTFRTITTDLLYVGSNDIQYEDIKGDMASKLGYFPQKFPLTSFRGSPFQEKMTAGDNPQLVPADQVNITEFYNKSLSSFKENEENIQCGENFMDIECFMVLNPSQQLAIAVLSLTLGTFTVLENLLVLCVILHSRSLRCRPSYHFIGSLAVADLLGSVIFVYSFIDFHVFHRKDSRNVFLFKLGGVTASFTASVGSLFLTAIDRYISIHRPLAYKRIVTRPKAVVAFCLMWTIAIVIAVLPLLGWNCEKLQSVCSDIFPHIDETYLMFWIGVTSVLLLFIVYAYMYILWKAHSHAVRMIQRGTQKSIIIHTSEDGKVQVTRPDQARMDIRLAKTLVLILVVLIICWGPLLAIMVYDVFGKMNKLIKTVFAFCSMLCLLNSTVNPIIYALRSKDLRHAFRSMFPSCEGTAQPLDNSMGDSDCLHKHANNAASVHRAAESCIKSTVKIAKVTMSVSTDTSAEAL

human CB2 receptors, sequence (P34972 whole entry): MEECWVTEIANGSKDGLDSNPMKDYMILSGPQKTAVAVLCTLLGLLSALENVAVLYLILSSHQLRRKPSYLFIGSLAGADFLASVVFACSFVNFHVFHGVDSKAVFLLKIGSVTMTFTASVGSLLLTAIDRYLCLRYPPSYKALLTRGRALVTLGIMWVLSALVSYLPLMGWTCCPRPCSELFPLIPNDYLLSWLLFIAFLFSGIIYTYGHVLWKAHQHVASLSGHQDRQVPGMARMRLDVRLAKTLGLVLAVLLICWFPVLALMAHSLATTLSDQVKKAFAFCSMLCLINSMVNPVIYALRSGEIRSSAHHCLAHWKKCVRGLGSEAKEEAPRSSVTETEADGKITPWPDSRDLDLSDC

| SMILES | EC50 (human CB2 receptors) [µM] | EC50 (human CB1 receptors) [µM] |
| --- | --- | --- |
| CC(C)(C)COc1nc(N2CCC(F)(F)C2)c2nc[nH]c2n1 [Example 151, 6-(3,3-difluoropyrrolidin-1-yl)-2-(2,2-dimethylpropoxy)-9H-purine] | 0.0287 | > 10 |
| CC(C)(C)c1nc(N2CC(F)(F)C(F)(F)C2)c2ncn(CCC(F)(F)F)c2n1 [Example 93, 2-tert-butyl-6-(3,3,4,4-tetrafluoropyrrolidin-1-yl)-9-(3,3,3-trifluoropropyl)purine] | 0.0898 | > 10 |
| CC(C)(C)COc1nc(N2CCC(F)(F)C2)c2ncn(Cc3ccccc3Cl)c2n1 [Example 124, 9-[(2-chlorophenyl)methyl]-6-(3,3-difluoropyrrolidin-1-yl)-2-(2,2-dimethylpropoxy) purine] | 0.0027 | > 10 |
| CC(C)(C)c1nc(N2CCC3(COC3)C2)c2ncn(Cc3ccccc3S(C)(=O)=O)c2n1 [Example 60, 7-[2-tert-butyl-9-[(2-methylsulfonylphenyl)methyl]purin-6-yl]-2-oxa-7-azaspiro[3.4]octane] | 0.175 | > 10 |
| CC(C)(C)c1nc(N2CCC3(COC3)C2)c2ncn(Cc3c[nH]nc3C(F)(F)F)c2n1 [Example 76, 7-[2-tert-butyl-9-[[3-(trifluoromethyl)-1H-pyrazol-4-yl]methyl]purin-6-yl]-2-oxa-7-azaspiro[3.4]octane] | 0.153 | > 10 |
| CC(C)(C)Nc1nc(N2CCC(F)(F)C2)c2ncn(Cc3ccccc3Cl)c2n1 [Example 107, N-tert-butyl-9-[(2-chlorophenyl)methyl]-6-(3,3-difluoropyrrolidin-1-yl)purin-2-amine] | 0.0081 | > 10 |
| Cc1noc(Cn2cnc3c(N4CCC(F)(F)C4)nc(OCC(C)(C)C)nc32)n1 [Example 128, 5-[[6-(3,3-difluoropyrrolidin-1-yl)-2-(2,2-dimethylpropoxy)purin-9-yl]methyl]-3-methyl-1,2,4-oxadiazole] | 0.109 | > 10 |
| CC(C)(C)c1nc(N2CCC3(COC3)C2)c2ncn(Cc3cccnc3Cl)c2n1 [Example 61, 7-[2-tert-butyl-9-[(2-chloropyridin-3-yl)methyl]purin-6-yl]-2-oxa-7-azaspiro[3.4]octane] | 0.0296 | > 10 |
